In patent US20030109570A1 (priority 2002, published 2003) one finds Emax data, which are given here for twelve compounds.

The target in one assay is T1, human PPARγ receptor (Homo sapiens, UniProt P37231).
T1 construct: expressed in transfected cells; host or cells: CV-1 cells, pSG5-based Gal4-PPAR expression vector
T1 sequence (P37231 204-505): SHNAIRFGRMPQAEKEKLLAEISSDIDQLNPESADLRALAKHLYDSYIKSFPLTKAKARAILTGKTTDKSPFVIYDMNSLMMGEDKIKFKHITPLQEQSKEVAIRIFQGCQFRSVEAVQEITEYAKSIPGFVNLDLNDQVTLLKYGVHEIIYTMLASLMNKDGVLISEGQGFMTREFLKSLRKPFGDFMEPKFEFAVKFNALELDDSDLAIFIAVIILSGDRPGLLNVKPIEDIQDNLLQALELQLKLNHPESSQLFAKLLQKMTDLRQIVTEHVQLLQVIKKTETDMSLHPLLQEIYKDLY
The assay is described as follows: Luciferase assay using human PPARγ receptor (Gal4 chimera, CV-1 cells). The format is cell-based. The note with it: 24 h, luciferase activity of Pioglitazone at 1 μM = 100, read-out: PPARγ agonist activity, Relative activity. As to the method:
(§1) 1) Materials for a Luciferase Assay Using Human PPARα and γ
(§2) The entire procedure was conducted using a usual yeast one- or two-hybrid system according to a basic genetic engineering process.
(§3) pGL2-UAS5-TK-luc was prepared as a reporter plasmid having a response sequence of the Gal4 protein as an yeast basic transcription factor and a luciferase gene (luc) under the control by an enhancer sequence with five times repeats of UAS and the thymidine kinase (TK) promoter promoter.
(§4) A vector expressing a chimera receptor in which a ligand binding region in an intranuclear receptor human PPARα or γ receptor was fused to the […] terminus in the DNA binding region of the yeast Gal4 protein was prepared as follows. Specifically, using pSG5 (trade name, STRATAGENE, Catalogue No.216201) as a basic expression vector, the structural gene was replaced with that of a chimera receptor.
(§5) A DNA encoding the ligand binding region in human PPARα or γ receptor was inserted downstream of the DNA binding region in the Gal4 protein, i.e., the DNA encoding the 1st to 147th amino acid sequence such that the frames were aligned and it was inserted downstream of the promoter-enhancer region in pSG5 (trade name). For localizing the expressed chimera receptor in the nucleus, the DNA sequence was constructed such that a nuclear transition signal derived from SV-40T antigen, Ala Pro Lys Lys Lys Arg Lys Val Gly (SEQ ID NO. 4) was present at the amino terminus of the ligand binding region in the human PPARα or γ receptor.
(§6) As the structural gene segment for a ligand binding region in the human PPARα or γ receptor, a DNA was used which encoded:
human PPARγ ligand binding region: Ser^176-Tyr^478
which correspond to Ser^204-Tyr^506 in the human PPARγ 1 receptor and PPARγ 2 receptor and thus have the same base sequence, from structural comparison for human PPAR receptors described in R. Mukherjee et al., J. Steroid Biochem. Molec. Biol., Vol. 51, p.157 (1994); M. E. Green et al. (Gene Expression., Vol.4, p.281 (1995). For monitoring an effect on basic transcription, was also prepared an expression vector having encoding only the DNA binding region of the Gal4 protein lacking the PPAR ligand binding region, the 1st to 147th amino acid sequence and a nuclear transition signal for SV-40T-antigen.
(§7) 2) Luciferase Assay Using the Human PPARα or γ Receptor
(§8) CV-1 cells used as a host cell were cultured as usual. Specifically, a fetal calf serum (Intergen, Catalogue No.1020-90) was added to the Dulbecco modified eagle medium (DMEM) to the final concentration of 10%, and penicillin G and streptomycin sulfate were then added to the final concentrations of 50 U/mL and 50 μg/mL, respectively. In the medium, the cells were cultured at 37° C. under 5% carbon dioxide.
(§9) The day before transfection, the cells were inoculated in a 24 well plate at 1.5×10^5 cells/well in advance. LipofectAMINE (trade name, GIBCOBRL, Catalogue No.26300-61) was used for transfection. Specifically, for each well, in 40 μL of a serum-free medium Opti-MEM (trade name, GIBCOBRL, Catalogue No.31985-070) were well mixed 100 ng of a reporter plasmid, 12.5 ng of Gal4-PPAR expression vector, 200 ng of pRL-TK (trade name) as an internal control, 287.5 ng of pGEM-3Zf(+) (trade name, PROMEGA, Catalogue No. P2271) as a carrier DNA and 2.6 μL of LipofectAMINE (trade name, GIBCOBRL, Catalogue No.26300-61). To the mixture was added 170.2 μL of Opti-MEM (trade name). After washing with PBS (Phosphate Buffered Saline) and Opti-MEM (trade name), the mixture was added to the above cells. After culturing at 37° C. for 16 hours, the medium was replaced with DMEM-10% charcoal-[…] treated fetal calf serum (trade name, HyClone, Catalogue No. SH30068.03) containing a compound of this invention. After culturing at 37° C. for 24 hours, the cells were lysed and determined for its luciferase activity as usual.

Another assay addresses T2, human PPARα receptor (Homo sapiens, UniProt Q07869).
T2 construct: and; expressed in transfected cells; host or cells: CV-1 cells, pSG5-based Gal4-PPAR expression vector
T2 sequence (Q07869 167-468): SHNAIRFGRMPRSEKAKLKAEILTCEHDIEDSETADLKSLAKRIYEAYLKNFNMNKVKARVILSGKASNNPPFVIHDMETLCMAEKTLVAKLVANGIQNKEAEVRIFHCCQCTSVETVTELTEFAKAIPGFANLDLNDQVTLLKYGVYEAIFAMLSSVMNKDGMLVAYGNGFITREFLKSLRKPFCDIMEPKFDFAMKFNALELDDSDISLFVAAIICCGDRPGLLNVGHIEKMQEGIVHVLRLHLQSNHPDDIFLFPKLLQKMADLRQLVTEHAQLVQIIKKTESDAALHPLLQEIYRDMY
Nature of the assay: Luciferase assay using human PPARα receptor (Gal4 chimera, CV-1 cells). The format is cell-based. The following applies: 24 h, luciferase activity of Wy-14.643 at 10 μM = 100, read-out: PPARα agonist activity, Relative activity. The method, then: as §1, §2, §3, §4, §5, §6
human PPARα ligand binding region: Ser^167-Tyr^468; and
as §7, §8, §9

Counter-ions that a name gives are not always drawn.

Consider `CCOC(=O)C(C)(Cc1cc2cc(OC)c(OC)cc2s1)Oc1ccc(C#N)cc1` (stereo not drawn) [Example 1], for which, on human PPARγ receptor, the Emax at 0.1 µM was determined as 0.4%, the Emax at 1 µM was found to be 3.2% and the Emax at 10 µM worked out at 81.5%. In addition, at human PPARα receptor, the Emax at 0.1 µM was 0.2%, the Emax at 1 µM was determined as 0.2% and the Emax at 10 µM is 0.5%.
In the case of `COc1cc2cc(CC(C)(Oc3ccc(C#N)cc3)C(=O)O)sc2cc1OC` (stereo not drawn) [Example 2], on human PPARγ receptor, the Emax at 0.1 µM turned out to be 17.8%, the Emax at 1 µM stood at 81.9% and the Emax at 10 µM came to 78.7%. In addition, on human PPARα receptor, the Emax at 0.1 µM was 0.1%, the Emax at 1 µM was 0.1% and the Emax at 10 µM was found to be 66.4%.
Regarding `COc1cc2cc(CC(C)(Oc3ccc(C(C)C)cc3)C(=O)O)sc2cc1OC` (stereo not drawn) [Example 3, 3-(5,6-dimethoxybenzothiophen-2-yl)-2-(4-isopropylphenoxy)-2-methylpropanoic Acid], on human PPARγ receptor, the Emax at 0.1 µM turned out to be 9.5%, the Emax at 1 µM was found to be 86.7% and the Emax at 10 µM worked out at 86.1%. Further, on human PPARα receptor, the Emax at 0.1 µM stood at 13.2%, the Emax at 1 µM was 116% and the Emax at 10 µM came to 111%.
As for `COc1cc2cc(CC(C)(Oc3ccc(C(=N)N4CCOCC4)cc3)C(=O)O)sc2cc1OC` (stereo not drawn) [Example 5, 3-(5,6-dimethoxybenzothiophen-2-yl) -2-methyl-2-(4-morpholinoamidinophenoxy)propanoic Acid Hydrochloride], on human PPARγ receptor, the Emax at 0.1 µM was determined as 0.3%, the Emax at 1 µM was found to be 0.3% and the Emax at 10 µM turned out to be 3.1%. On human PPARα receptor, the Emax at 0.1 µM worked out at 0.2%, the Emax at 1 µM is 0.3% and the Emax at 10 µM was determined as 0.7%.
On to `COc1cc2sc(/C=C(\Oc3ccc(C(C)C)cc3)C(=O)O)cc2c(Cl)c1OC` [Example 6, (Z)-3-(4-chloro-5,6-dimethoxybenzothiophen-2-yl)-2-(4-isopropylphenoxy)propenoic Acid], for which, at human PPARγ receptor, the Emax at 0.1 µM turned out to be 1.2%, the Emax at 1 µM is 19% and the Emax at 10 µM was 60.1%. In addition, at human PPARα receptor, the Emax at 0.1 µM worked out at 0.1%, the Emax at 1 µM turned out to be 0.1% and the Emax at 10 µM came out at 0.1%.
For `CCOC(=O)C(C)(Cc1cc2ccccc2s1)C(N)=O` (stereo not drawn) [Example 8, 2-(benzothiophen-2-yl)methyl-2-methylmalonamide Ethyl Ester], on human PPARγ receptor, the Emax at 0.1 µM is 0.3%, the Emax at 1 µM was determined as 0.3% and the Emax at 10 µM was determined as 0.3%. Moreover, on human PPARα receptor, the Emax at 0.1 µM was 0.1%, the Emax at 1 µM came out at 0.1% and the Emax at 10 µM was found to be 0.2%.
Turning to `CC(Cc1cc2ccccc2s1)(C(=O)O)C(=O)NC1CCCCC1` (stereo not drawn) [Example 10, 2-(benzothiophen-2-yl)methyl-2-methylmalonic Acid N-cyclohexylamide], at human PPARγ receptor, the Emax at 0.1 µM was 1.2%, the Emax at 1 µM is 2.1% and the Emax at 10 µM turned out to be 31.2%. In addition, on human PPARα receptor, the Emax at 0.1 µM came to 0.1%, the Emax at 1 µM stood at 0.1% and the Emax at 10 µM is 20.7%.
With `CC(Cc1cc2ccccc2s1)(C(=O)O)C(=O)N1CCOCC1` (stereo not drawn) [Example 11, 2-(benzothiophen-2-yl)methyl-2-methylmalonic Acid N-morpholinoamide], on human PPARγ receptor, the Emax at 0.1 µM came to 0.3%, the Emax at 1 µM worked out at 0.3% and the Emax at 10 µM amounted to 0.3%. At human PPARα receptor, the Emax at 0.1 µM turned out to be 0.1%, the Emax at 1 µM stood at 0.2% and the Emax at 10 µM was 0.3%.
For the compound `CC(C)c1ccc(NC(=O)C(C)(Cc2cc3ccccc3s2)C(=O)O)cc1` (stereo not drawn) [Example 12, 2-(benzothiophen-2-yl)methyl-2-methylmalonic Acid N-(4-isopropylphenyl)amide], on human PPARγ receptor, the Emax at 0.1 µM stood at 0.3%, the Emax at 1 µM was found to be 0.3% and the Emax at 10 µM was 0.5%. In addition, at human PPARα receptor, the Emax at 0.1 µM worked out at 0.2%, the Emax at 1 µM amounted to 0.2% and the Emax at 10 µM came to 0.2%.
Regarding `COc1cc2cc(CC(C)(C(=O)O)C(=O)NC3CCCCC3)sc2cc1OC` (stereo not drawn) [Example 14, 2-(5,6-dimethoxybenzothiophen-2-yl)methyl-2-methylmalonic Acid N-cyclohexylamide], at human PPARγ receptor, the Emax at 0.1 µM worked out at 0.3%, the Emax at 1 µM amounted to 0.3% and the Emax at 10 µM turned out to be 0.5%. Also, at human PPARα receptor, the Emax at 0.1 µM stood at 0.2%, the Emax at 1 µM was 0.2% and the Emax at 10 µM amounted to 0.6%.
Consider `COc1cc2cc(CC(C)(Oc3ccc(C#N)cc3)C(N)=O)sc2cc1OC` (stereo not drawn) [Example 15], for which, at human PPARγ receptor, the Emax at 0.1 µM came to 0.5%, the Emax at 1 µM came out at 0.4% and the Emax at 10 µM is 1.1%. At human PPARα receptor, the Emax at 0.1 µM is 0.2%, the Emax at 1 µM turned out to be 0.2% and the Emax at 10 µM was 0.1%.
In the case of `CCCCNC(=O)C(C)(Cc1cc2cc(OC)c(OC)cc2s1)Oc1ccc(C#N)cc1` (stereo not drawn) [Example 16], on human PPARγ receptor, the Emax at 0.1 µM stood at 0.4%, the Emax at 1 µM turned out to be 0.4% and the Emax at 10 µM turned out to be 0.3%. Further, on human PPARα receptor, the Emax at 0.1 µM was 0.2%, the Emax at 1 µM is 0.2% and the Emax at 10 µM is 0.1%.
